Results published in patent US20250134895A1, “METHODS AND COMPOSITIONS FOR TREATING ALPHA-SYNUCLEIN-MEDIATED NEURODEGENERATION” (UNIVERSITY HEALTH NETWORK, priority 2021, published 2025).

Experiments:
HSP70 = HSP70 immunofluorescence in V1S-SV2 primary cortical rat neurons; assay type: cell-based; details: 10 μM
Procedure: To investigate the mechanism underlying these drug effects, experiments were directed towards the potential involvement of molecular chaperone HSP70. HSP70 is known to play an essential role in suppressing α-synuclein aggregation, and in particular the inhibition of α-synuclein oligomer formation (Tao et al., 2020). To investigate the in silico predictions of HSP70 interactions with top drug candidates from the Cyclica proteome screening, fluorescence intensity was measured in V1 S-SV2 primary cortical rat neurons (FIGS. 15A and E) for potential effects on α-synuclein oligomers.
Pregnant Sprague Dawley rats (E17) were purchased from Charles River. […] Cells were washed three more times before being counter-stained with DAPI for 5 mins and mounted using ProLong Gold mounting medium for fluorescence (ThermoFisher). […] Fluorescence intensity was analysed automatically using Imaris imaging software (Oxford Instruments) by measuring the mean fluorescence intensity of each individual fluorescent neuron using the “surfaces” module. This module detects fluorescence above background threshold in each field of view, identifies a cell body and neuronal projections of each cell, and calculates the mean fluorescence intensity of each fluorescent cell within the field of view. […] The value generated for each neuron was normalized to the mean of fluorescence intensity of neurons treated with vehicle alone. […]

α-synuclein oligomers = α-synuclein oligomers (Homo sapiens, UniProt P37840); assay: Gaussia luciferase protein-fragment complementation cell assay of α-synuclein oligomers in H4 neuroglioma cells; assay type: cell-based; set-up: full-length human α-synuclein fused to the N-terminal fragment of Gaussia princeps luciferase (syn-luc1); full-length human α-synuclein fused to the C-terminal fragment of Gaussia princeps luciferase (syn-luc2); expressed in transfected cells; host or cells: H4 neuroglioma cells (ATCC, HTB-148), transient co-transfection; details: 1 μM or 10 μM, Example 9
Procedure: For controls in this assay, vehicle (i.e., DMSO), rapamycin, and bafilomycin A were used. Rapamycin, or sirolimus, is a small molecule that activates autophagy by inhibiting mTOR (mammalian target of rapamycin). […] To test this possibility, cells expressing α-synuclein were treated with each of the compounds and a cell permeable, resazurin-based assay was used to test for cell viability.
H4 neuroglioma cells (ATCC, HTB-148) were maintained in Dulbecco's Modified Eagle Medium plus high glucose, L-glutamine, and sodium pyruvate (ThermoFisher, 11995-065) with 10% heat-inactivated fetal bovine serum (ThermoFisher, 16140071) and 1% antibiotic-antimycotic cocktail (ThermoFisher, 15240062) at 37° C. and 5% CO2. DNA expression constructs encoding for full-length human α-synuclein fused to the N-terminal fragment of Gaussia princeps luciferase (syn-luc1), full-length human α-synuclein fused to the C-terminal fragment of Gaussia princeps luciferase (syn-luc2), and full-length Gaussia princeps luciferase were kindly provided by Dr. Pamela McLean, Mayo Clinic Jacksonville.^33 Cells were transiently co-transfected with syn-luc1 and syn-luc2 or transfected with luciferase alone using Superfect transfection reagent (Qiagen, 301305) according to the manufacturer's instructions. Twenty-four hours after transfection, cells were plated on a 96-well microplate at 60,000 cells per well. Twenty-four hours after plating, cells were treated with drugs or vehicle control. Following 24 hours of treatment, cells were washed 1 time with PBS and bioluminescence was measured using an automated CLARIOstar plate reader (Mandel, 430-0505). Cell permeable, native coelenterazine was used as the Gaussia luciferase substrate. Lyophilized coelenterazine (Nanolight, 303-500) was reconstituted in NanoFuel Solvent (Nanolight, 399-1), then diluted in PBS to 16.6 μg/mL, and dispensed per well to a final concentration of 20 μM). The bioluminescent signal generated by the luciferase enzyme was assessed at 470 nm over 5 seconds. Raw luminescence units were normalized to the DMSO vehicle control of each 96-well microplate. To assess cell viability, H4 neuroglioma cells were prepared and treated as described above and, 1 hour prior to viability analysis, cells were treated with PrestoBlue viability reagent (ThermoFisher, A13261) according to the manufacturer's instructions. Fluorescence was automatically measured using a CLARIOstar plate reader (Mandel, 430-0505) and then normalized to the fluorescence measure of the DMSO vehicle control.
We used a bioluminescent protein-fragment complementation assay in which human H4 neuroglioma cells co-express human α-synuclein tagged with the N- or C-terminal half of Gaussia princeps luciferase (FIG. 12). Reconstitution of a complete and active luciferase molecule from the fragments occurs upon α-synuclein oligomerization, and so luminescence provides an indirect measure of α-synuclein oligomer levels. H4 neuroglioma cells were co-transfected with α-syn luciferase fragments, and constructs were plated into a 96-well plate and treated with either 1 μM or 10 μM of each of the 19 drug compounds.

Compound: Nc1nc(NC2CC2)c2ncn([C@H]3C=C[C@@H](CO)C3)c2n1 [Abacavir, abacavir]
- HSP70 fluorescence compared to vehicle control (HSP70): significantly increased
- α-syn oligomers as measured by luciferase activity (α-synuclein oligomers): significant decrease
